The values that follow are results of earlier work, collected in patent publication US20230212091A1, “Compositions for Increasing Nitrogen Sources Life Span in Plant Growth Mediums and Methods of Making” (Soilgenic Technologies, LLC, priority 2017, published 2023).

The conditions of this data set: at 20° C.

Consider `N#CN=C(N)N` [DCD, dicyandiamide], for which the solubility in water entry is given as “approximately 32 grams/liter”.
